# Experimental data as given in patent US9249129B2, “Morpholino substituted urea derivatives as mTOR inhibitors” (CELLZOME LIMITED, priority 2010, dated 2016).
# Where two headings read alike, the source gives them in different places.
# Legend:
# mTOR = target: T1, mTOR (Homo sapiens, UniProt P42345); test: mTOR kinobeads assay (dot blot detection); assay type: binding
# T1 construct: endogenous in cells; host or cells: Jurkat cells (ATCC TIB-152, clone E6-1), lysate
# Summary of the method: (§1)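 Jurkat cell lysate (5 mg/mL protein) incubated 2 h in the cold with test compound (9-step 1:3 series) and immobilized phenylthiazole/phenylmorpholin-chromen ligand beads. Bead-bound kinases eluted, detected by specific antibody dot blot with infrared readout; IC50 from dose-response curves.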
# PI3K delta (PI3Kd) = target: T2, PI3K delta (PI3Kd) (Homo sapiens, UniProt O00329); test: kinobeads assay, PI3K delta (dot blot detection); assay type: binding
# T2 construct: endogenous in cells; host or cells: Jurkat cells (ATCC TIB-152, clone E6-1), lysate
# T2 sequence (O00329 whole entry): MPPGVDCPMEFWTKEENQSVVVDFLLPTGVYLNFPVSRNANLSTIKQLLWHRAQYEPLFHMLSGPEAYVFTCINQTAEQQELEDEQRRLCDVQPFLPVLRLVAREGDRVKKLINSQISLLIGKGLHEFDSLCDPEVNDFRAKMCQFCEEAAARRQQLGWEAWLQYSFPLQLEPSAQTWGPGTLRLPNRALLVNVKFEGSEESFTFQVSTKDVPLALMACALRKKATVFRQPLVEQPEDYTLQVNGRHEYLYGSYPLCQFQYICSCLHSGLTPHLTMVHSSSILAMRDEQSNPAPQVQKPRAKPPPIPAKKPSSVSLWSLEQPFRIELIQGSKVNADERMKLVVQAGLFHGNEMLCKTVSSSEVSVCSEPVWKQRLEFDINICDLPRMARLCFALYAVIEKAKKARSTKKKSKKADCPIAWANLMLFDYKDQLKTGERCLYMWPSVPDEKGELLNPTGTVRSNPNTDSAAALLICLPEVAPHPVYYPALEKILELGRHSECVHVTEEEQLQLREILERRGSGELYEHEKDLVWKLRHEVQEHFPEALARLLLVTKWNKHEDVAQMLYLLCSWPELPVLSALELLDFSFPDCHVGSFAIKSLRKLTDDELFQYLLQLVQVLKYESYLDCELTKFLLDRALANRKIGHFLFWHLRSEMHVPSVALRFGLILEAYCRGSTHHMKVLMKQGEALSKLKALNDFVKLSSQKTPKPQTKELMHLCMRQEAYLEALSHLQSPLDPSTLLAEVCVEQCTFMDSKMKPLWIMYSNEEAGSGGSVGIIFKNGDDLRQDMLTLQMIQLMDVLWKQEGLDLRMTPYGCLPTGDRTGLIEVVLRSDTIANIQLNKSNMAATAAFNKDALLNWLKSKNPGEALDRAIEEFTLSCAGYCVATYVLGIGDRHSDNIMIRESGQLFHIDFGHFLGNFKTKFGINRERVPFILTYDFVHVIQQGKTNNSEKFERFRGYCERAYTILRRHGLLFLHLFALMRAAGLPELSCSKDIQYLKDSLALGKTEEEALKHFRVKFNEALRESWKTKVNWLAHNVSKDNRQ
# T2 sequence (P27986 whole entry partner): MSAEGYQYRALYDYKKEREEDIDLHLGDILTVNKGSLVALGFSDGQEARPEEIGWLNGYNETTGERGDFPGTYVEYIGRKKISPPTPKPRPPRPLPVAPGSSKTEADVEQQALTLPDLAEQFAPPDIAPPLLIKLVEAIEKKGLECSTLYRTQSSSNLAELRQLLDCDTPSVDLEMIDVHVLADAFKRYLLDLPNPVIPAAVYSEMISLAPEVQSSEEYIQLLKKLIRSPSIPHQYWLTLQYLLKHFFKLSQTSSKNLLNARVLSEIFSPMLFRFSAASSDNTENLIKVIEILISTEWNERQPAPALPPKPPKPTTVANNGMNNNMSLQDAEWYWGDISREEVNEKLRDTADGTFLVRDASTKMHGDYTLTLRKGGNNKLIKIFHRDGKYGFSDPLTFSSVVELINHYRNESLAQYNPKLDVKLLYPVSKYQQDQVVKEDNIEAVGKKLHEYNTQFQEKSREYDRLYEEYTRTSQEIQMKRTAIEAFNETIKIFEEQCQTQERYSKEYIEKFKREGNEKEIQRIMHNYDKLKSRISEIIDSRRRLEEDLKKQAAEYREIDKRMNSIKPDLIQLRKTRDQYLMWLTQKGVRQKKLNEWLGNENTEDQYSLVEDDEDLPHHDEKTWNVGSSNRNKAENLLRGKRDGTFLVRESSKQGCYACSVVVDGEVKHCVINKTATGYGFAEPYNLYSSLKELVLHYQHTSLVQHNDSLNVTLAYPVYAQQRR
# Summary of the method: as §1
# [1] = target: T3, DNA-dependent protein kinase (DNA-PK) (Homo sapiens, UniProt P78527); test: kinobeads assay, DNA-PK (dot blot detection); assay type: binding
# T3 construct: endogenous in cells; host or cells: Jurkat cells (ATCC TIB-152, clone E6-1), lysate
# Summary of the method: as §1
# PI3Kα = target: T4, PI3Kα (Homo sapiens, UniProt P42336); test: kinobeads assay, PI3K alpha (dot blot detection); assay type: binding; settings: Table 4, read-out: Inhibition values (IC50) PI3Ka
# T4 construct: endogenous in cells; host or cells: Jurkat cells (ATCC TIB-152) lysate, the only lysate described
# T4 sequence (P42336 whole entry): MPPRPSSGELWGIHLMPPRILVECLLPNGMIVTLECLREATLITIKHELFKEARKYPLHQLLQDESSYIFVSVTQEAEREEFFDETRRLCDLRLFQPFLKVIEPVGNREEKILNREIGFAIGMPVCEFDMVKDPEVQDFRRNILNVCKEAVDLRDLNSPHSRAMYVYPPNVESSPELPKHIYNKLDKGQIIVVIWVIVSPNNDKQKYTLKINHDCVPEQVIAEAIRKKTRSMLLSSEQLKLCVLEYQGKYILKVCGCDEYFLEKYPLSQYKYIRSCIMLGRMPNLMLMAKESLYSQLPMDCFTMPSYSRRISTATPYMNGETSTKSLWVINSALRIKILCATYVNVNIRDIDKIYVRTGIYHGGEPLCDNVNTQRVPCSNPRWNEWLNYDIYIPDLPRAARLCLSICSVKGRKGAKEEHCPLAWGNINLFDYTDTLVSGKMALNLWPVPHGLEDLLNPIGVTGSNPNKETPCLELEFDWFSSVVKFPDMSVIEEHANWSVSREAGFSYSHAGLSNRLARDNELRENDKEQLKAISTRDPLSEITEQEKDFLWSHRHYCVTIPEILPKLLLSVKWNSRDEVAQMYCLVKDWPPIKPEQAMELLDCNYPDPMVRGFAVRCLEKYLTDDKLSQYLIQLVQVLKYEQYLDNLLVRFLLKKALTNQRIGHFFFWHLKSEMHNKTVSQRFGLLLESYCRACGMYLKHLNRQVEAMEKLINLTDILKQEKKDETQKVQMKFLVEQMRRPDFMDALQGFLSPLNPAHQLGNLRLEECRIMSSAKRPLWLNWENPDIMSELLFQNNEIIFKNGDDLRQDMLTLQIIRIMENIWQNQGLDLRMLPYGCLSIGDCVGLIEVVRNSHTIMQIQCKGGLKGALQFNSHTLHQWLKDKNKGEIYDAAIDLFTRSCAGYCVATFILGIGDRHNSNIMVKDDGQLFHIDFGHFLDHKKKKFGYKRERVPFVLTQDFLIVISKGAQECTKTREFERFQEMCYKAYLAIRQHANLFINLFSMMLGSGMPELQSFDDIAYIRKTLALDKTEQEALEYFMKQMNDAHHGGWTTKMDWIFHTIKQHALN
# T4 sequence (P27986 whole entry partner): as the sequence (P27986 whole entry partner) above
# PI3Kβ = target: T5, PI3Kβ (Homo sapiens, UniProt P42338); test: kinobeads assay, PI3K beta (dot blot detection); assay type: binding; settings: Table 4, read-out: Inhibition values (IC50) PI3Kb
# T5 construct: endogenous in cells; host or cells: Jurkat cells (ATCC TIB-152) lysate, the only lysate described
# T5 sequence (P42338 whole entry): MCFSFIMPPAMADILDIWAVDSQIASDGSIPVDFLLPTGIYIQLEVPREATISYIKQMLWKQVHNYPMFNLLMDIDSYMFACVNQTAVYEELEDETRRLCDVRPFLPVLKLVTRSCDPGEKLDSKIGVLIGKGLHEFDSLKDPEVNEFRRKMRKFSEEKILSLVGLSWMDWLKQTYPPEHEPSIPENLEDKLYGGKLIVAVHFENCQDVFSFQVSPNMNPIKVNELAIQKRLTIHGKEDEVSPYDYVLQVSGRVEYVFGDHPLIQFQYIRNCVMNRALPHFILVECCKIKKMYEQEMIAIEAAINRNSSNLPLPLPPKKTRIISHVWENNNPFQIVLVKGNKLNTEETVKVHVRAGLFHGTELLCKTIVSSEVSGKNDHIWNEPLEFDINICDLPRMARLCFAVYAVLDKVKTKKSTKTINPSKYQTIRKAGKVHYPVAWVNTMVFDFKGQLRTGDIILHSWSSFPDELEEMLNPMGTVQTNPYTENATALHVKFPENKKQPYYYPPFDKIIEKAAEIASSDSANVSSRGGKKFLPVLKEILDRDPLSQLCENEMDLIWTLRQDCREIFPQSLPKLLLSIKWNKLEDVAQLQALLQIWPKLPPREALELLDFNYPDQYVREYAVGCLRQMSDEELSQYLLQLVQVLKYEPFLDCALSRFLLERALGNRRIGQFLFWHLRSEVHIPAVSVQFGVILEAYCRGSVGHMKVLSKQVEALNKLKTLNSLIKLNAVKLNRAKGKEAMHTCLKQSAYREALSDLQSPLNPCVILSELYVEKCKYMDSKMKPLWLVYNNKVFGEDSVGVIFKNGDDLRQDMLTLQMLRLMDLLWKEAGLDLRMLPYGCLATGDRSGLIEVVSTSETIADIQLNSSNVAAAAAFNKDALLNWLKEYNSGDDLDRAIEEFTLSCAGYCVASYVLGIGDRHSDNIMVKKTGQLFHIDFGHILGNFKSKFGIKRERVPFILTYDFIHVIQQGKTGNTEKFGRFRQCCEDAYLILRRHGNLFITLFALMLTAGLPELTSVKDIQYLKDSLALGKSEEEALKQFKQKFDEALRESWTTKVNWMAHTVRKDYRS
# T5 sequence (P27986 whole entry partner): as the sequence (P27986 whole entry partner) above
# PI3Kγ = target: T6, PI3Kγ (Homo sapiens, UniProt P48736); test: kinobeads assay, PI3K gamma (dot blot detection); assay type: binding; settings: Table 4, read-out: Inhibition values (IC50) PI3Kg
# T6 construct: endogenous in cells; host or cells: Jurkat cells (ATCC TIB-152) lysate, the only lysate described
# T6 sequence (P48736 whole entry): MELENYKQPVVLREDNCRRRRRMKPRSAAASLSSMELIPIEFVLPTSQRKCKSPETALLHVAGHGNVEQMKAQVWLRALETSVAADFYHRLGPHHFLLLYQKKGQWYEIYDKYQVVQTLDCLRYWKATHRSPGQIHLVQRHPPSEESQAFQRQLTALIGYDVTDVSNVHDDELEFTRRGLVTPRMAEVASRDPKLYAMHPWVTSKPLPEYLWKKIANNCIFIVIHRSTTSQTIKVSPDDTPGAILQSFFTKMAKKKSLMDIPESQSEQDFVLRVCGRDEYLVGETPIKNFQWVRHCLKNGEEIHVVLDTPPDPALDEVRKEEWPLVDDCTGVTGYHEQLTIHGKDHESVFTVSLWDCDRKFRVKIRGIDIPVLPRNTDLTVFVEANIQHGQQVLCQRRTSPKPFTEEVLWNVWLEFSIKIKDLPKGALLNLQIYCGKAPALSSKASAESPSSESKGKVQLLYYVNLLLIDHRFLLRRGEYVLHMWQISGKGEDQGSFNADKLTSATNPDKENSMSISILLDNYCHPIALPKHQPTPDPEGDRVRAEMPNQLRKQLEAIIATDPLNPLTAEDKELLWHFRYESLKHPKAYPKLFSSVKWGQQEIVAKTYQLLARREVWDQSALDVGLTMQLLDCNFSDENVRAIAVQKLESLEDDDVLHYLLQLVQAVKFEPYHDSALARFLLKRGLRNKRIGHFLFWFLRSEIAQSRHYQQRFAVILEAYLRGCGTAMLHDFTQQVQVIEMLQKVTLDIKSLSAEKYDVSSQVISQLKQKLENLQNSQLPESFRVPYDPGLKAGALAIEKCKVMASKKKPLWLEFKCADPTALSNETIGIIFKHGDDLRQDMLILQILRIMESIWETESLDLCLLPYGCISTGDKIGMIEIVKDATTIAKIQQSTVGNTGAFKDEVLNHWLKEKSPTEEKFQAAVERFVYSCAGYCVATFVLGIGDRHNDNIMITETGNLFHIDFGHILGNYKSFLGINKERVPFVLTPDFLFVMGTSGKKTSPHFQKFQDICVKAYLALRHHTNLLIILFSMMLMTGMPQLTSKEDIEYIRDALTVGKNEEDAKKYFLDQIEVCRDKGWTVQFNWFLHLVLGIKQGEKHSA
# [2] = tested on: S6RP serine-240/244 phosphorylation in HEK293T/17 cells; test: In vitro phospho-S6 cellular assay (pS6RP S240/244); assay type: cell-based; settings: Homo sapiens, Table 6, 2 hours, S6RP Ser240/244, read-out: pS6 (phospho-S6 cell assay data, activity level)
# Excerpt: In Vitro Phospho-S6 and Phospho-Akt Cellular Assay
# Activation of mTOR signaling results in phosphorylation of several downstream targets. In cells, mTOR exists in two different protein complexes. The mTOR Complex-1 (mTORC1) phosphorylates and activates S6 Kinase 1 (S6K1) and S6 Kinase 2 (S6K2) (also known as p70S6K) which then phosphorylate S6 Ribosomal Protein (S6RP) (also known as RPS6). S6RP is phosphorylated on serine 235, serine 236, serine 240 and serine 244 by both pS6K1 and pS6K2. The mTOR Complex-2 (mTORC2) phosphorylates AKT on serine 473 which activates the AKT signaling pathway.
# The assay measures a test compound's inhibition of S6RP serine-240/244 phosphorylation and inhibition of Akt serine-473 phosphorylation in human embryonic kidney derived HEK293T/17 cells (ATCC CRL-11268).
# The HEK293T/17 cell line is maintained in DMEM media (Invitrogen catalogue number 41965-039) supplemented with 10% FCS at 37° C. in a 5% CO2 humidified incubator.
# Cells are seeded in 96-well plates at 40,000 cells/well (pS6RP S240/244 assay) or 80,000 cells/well (pAkt 5473 assay) in 90 μl growth media (DMEM, 2% FCS). Plates are incubated for 1 hour in a humidified incubator to allow the cells to adhere. Cells are treated with 8 concentrations of test compounds or DMSO alone for controls (final DMSO concentration 0.1%) and incubated at 37° C. for 2 hours. Then 20 μl of 5× concentrated lysis buffer (750 mM NaCl, 100 mM Tris pH7.4, 5 mM EDTA, 5 mM EGTA, 5% Triton X-100) is added, plates are sealed and incubated for 15 minutes at 4° C. with gentle shaking. After cell lysis, 25 μl cell lysate is transferred to a MesoScale plate coated with an antibody to pS6RP Ser240/244 (MesoScale Discovery K150DGD-3) or an antibody to pAkt Ser 473 (MesoScale Discovery K151DGD-3). Plates have been blocked before by incubation with 150 μl MesoScale Discovery Blocking Solution-A for 1 hour at room temperature followed by washing with 150 μl 1× Tris wash buffer per well. After the transfer of the cell lysate to the MSD plate, the pS6RP (or pAkt) protein is captured on the coated antibody by incubation at room temperature for 1 hour with gentle shaking. After the capture step the plate is washed three times with 150 μl of 1× Tris wash buffer per well. Then 25 μl detection antibody conjugated with a Sulfo-Tag is added and incubated for 1 hour at room temperature with gentle shaking. Subsequently the antibody solution is removed and the plate is washed 3 times with 150 μl 1× Tris wash buffer per well and 150 μl Read buffer is added. The plates are analysed on a MSD 2400 Plate Reader (MesoScale Discovery). Data analysis is performed using nonlinear regression for a sigmoidal dose-response with a variable slope.
# [3] = Table 2, Jurkat cell lysate, read-out: Inhibition values (IC50) mTor
# [4] = Table 4, read-out: Inhibition values (IC50) mTOR
# [5] = Table 2, Jurkat cell lysate, read-out: Inhibition values (IC50) PI3Kd
# [6] = Table 4, read-out: Inhibition values (IC50) PI3Kd
# [7] = Table 2, Jurkat cell lysate, read-out: Inhibition values (IC50) DNAPK
# [8] = Table 4, read-out: Inhibition values (IC50) DNAPK
SMILES,IC50 (mTOR; [3]) [µM],IC50 (mTOR; [4]) [µM],IC50 (PI3K delta (PI3Kd); [5]) [µM],IC50 (PI3K delta (PI3Kd); [6]) [µM],"IC50 [1, 7] [µM]","IC50 [1, 8] [µM]",IC50 (PI3Kα) [µM],IC50 (PI3Kβ) [µM],IC50 (PI3Kγ) [µM],IC50 [2] [µM]
"CCNC(=O)Nc1ccc(-c2nccc(N3CC4CCC(C3)O4)n2)cc1 [Example 49, 1-(4-(4-(8-oxa-3-azabicyclo[3.2.1]octan-3-yl)pyrimidin-2-yl)phenyl)-3-ethylurea]",0.1 to 1,0.1 to 1,≥ 10,≥ 10,1 to 10,1 to 10,≥ 10,≥ 10,≥ 10,0.1 to 1
"O=C(NCCO)Nc1ccc(-c2nccc(N3CC4CCC(C3)O4)n2)cc1 [Example 50, 1-(4-(4-(8-oxa-3-azabicyclo[3.2.1]octan-3-yl)pyrimidin-2-yl)phenyl)-3-(2-hydroxyethyl)urea]",< 0.1,< 0.1,≥ 10,≥ 10,1 to 10,1 to 10,≥ 10,≥ 10,≥ 10,0.1 to 1
"O=C(NCC(F)F)Nc1ccc(-c2nccc(N3CC4CCC(C3)O4)n2)cc1 [Example 51, 1-(4-(4-(8-oxa-3-azabicyclo[3.2.1]octan-3-yl)pyrimidin-2-yl)phenyl)-3-(2,2-difluoroethyl)urea]",0.1 to 1,0.1 to 1,≥ 10,≥ 10,1 to 10,1 to 10,≥ 10,≥ 10,≥ 10,0.1 to 1
"O=C(NCCF)Nc1ccc(-c2nccc(N3CC4CCC(C3)O4)n2)cc1 [Example 52, 1-(4-(4-(8-oxa-3-azabicyclo[3.2.1]octan-3-yl)pyrimidin-2-yl)phenyl)-3-(2-fluoroethyl)urea]",0.1 to 1,0.1 to 1,≥ 10,≥ 10,1 to 10,1 to 10,≥ 10,≥ 10,≥ 10,0.1 to 1
"C[C@H]1COCCN1c1ccnc(-c2ccc(NC(=O)NCCO)cc2)n1 [Example 53, (S)-1-(2-hydroxyethyl)-3-(4-(4-(3-methylmorpholino)pyrimidin-2-yl)phenyl)urea]",0.1 to 1,0.1 to 1,≥ 10,≥ 10,≥ 10,≥ 10,1 to 10,≥ 10,≥ 10,0.1 to 1
"C[C@H]1COCCN1c1ccnc(-c2ccc(NC(=O)NCC(F)F)cc2)n1 [Example 54, (S)-1-(2,2-difluoroethyl)-3-(4-(4-(3-methylmorpholino)pyrimidin-2-yl)phenyl)urea]",0.1 to 1,0.1 to 1,≥ 10,≥ 10,≥ 10,≥ 10,≥ 10,≥ 10,≥ 10,0.1 to 1
"C[C@H]1COCCN1c1ccnc(-c2ccc(NC(=O)NCCF)cc2)n1 [Example 55, (S)-1-(2-fluoroethyl)-3-(4-(4-(3-methylmorpholino)pyrimidin-2-yl)phenyl)urea]",0.1 to 1,0.1 to 1,≥ 10,≥ 10,≥ 10,≥ 10,≥ 10,≥ 10,≥ 10,0.1 to 1
"CCNC(=O)Nc1ccc(-c2ccnc(N3CC4CCC(C3)O4)n2)cc1 [Example 56, 1-(4-(2-(8-oxa-3-azabicyclo[3.2.1]octan-3-yl)pyrimidin-4-yl)phenyl)-3-ethylurea]",1 to 10,1 to 10,≥ 10,≥ 10,≥ 10,≥ 10,≥ 10,≥ 10,≥ 10,0.1 to 1
"O=C(Nc1ccc(-c2ccnc(N3CC4CCC(C3)O4)n2)cc1)NC1CC1 [Example 57, 1-(4-(2-(8-oxa-3-azabicyclo[3.2.1]octan-3-yl)pyrimidin-4-yl)phenyl)-3-cyclopropylurea]",1 to 10,1 to 10,≥ 10,≥ 10,≥ 10,≥ 10,≥ 10,≥ 10,≥ 10,0.1 to 1
"C[C@H]1COCCN1c1nccc(-c2ccc(NC(=O)NCCO)cc2)n1 [Example 58, (S)-1-(2-hydroxyethyl)-3-(4-(2-(3-methylmorpholino)pyrimidin-4-yl)phenyl)urea]",1 to 10,1 to 10,≥ 10,≥ 10,≥ 10,≥ 10,≥ 10,≥ 10,≥ 10,0.1 to 1
"O=C(NCCO)Nc1ccc(-c2ccnc(N3CC4CCC(C3)O4)n2)cc1 [Example 59, 1-(4-(2-(8-oxa-3-azabicyclo[3.2.1]octan-3-yl)pyrimidin-4-yl)phenyl)-3-(2-hydroxyethyl)urea]",1 to 10,1 to 10,≥ 10,≥ 10,≥ 10,≥ 10,≥ 10,≥ 10,≥ 10,0.1 to 1
"C[C@H]1COCCN1c1cc(-c2cncc(F)c2)nc(-c2ccc(NC(=O)NC3CC3)cc2F)n1 [Example 63, (S)-1-cyclopropyl-3-(3-fluoro-4-(4-(5-fluoropyridin-3-yl)-6-(3-methylmorpholino)pyrimidin-2-yl)phenyl)urea]",1 to 10,1 to 10,≥ 10,≥ 10,≥ 10,≥ 10,≥ 10,≥ 10,≥ 10,0.1 to 1
"C[C@H]1COCCN1c1cc(-c2cncc(F)c2)nc(-c2ccc(NC(=O)NCCO)cc2F)n1 [Example 65, (S)-1-(3-fluoro-4-(4-(5-fluoropyridin-3-yl)-6-(3-methylmorpholino)pyrimidin-2-yl)phenyl)-3-(2-hydroxyethyl)urea]",0.1 to 1,0.1 to 1,≥ 10,≥ 10,≥ 10,≥ 10,≥ 10,≥ 10,≥ 10,0.1 to 1
"C[C@H]1COCCN1c1cc(-c2cc(F)ccc2S(C)(=O)=O)nc(-c2ccc(NC(=O)NC3CC3)cc2F)n1 [Example 66, (S)-1-cyclopropyl-3-(3-fluoro-4-(4-(5-fluoro-2-(methylsulfonyl)phenyl)-6-(3-methylmorpholino)pyrimidin-2-yl)phenyl)urea]",1 to 10,1 to 10,≥ 10,≥ 10,≥ 10,≥ 10,≥ 10,≥ 10,≥ 10,0.1 to 1
